Earlier results, collected in PMC11226190 (Drug Design, Development and Therapy, 2024).

Conditions: comparable publication

## NC(=O)CI [Iodoacetamide]
  second order rate constant, DTNB assay: 2.5 M⁻¹ s⁻¹
